Measurements published in US11739098B2 (BRISTOL-MYERS SQUIBB COMPANY, priority 2017, dated 2023).

Assays:
Type in all cases: cell-based
human TLR7 = biological target: T1, human TLR7 (Homo sapiens, UniProt Q9NYK1); test: TLR7 inhibition reporter assay (HEK-Blue cells, SEAP reporter, gardiquimod stimulation); conditions: HEK-Blue cells overexpressing human TLR7, SEAP reporter, gardiquimod 7.5 μM
T1 construct: host or cells: HEK-Blue cells (HEK293-derived reporter line)
T1 sequence (Q9NYK1 27-1049): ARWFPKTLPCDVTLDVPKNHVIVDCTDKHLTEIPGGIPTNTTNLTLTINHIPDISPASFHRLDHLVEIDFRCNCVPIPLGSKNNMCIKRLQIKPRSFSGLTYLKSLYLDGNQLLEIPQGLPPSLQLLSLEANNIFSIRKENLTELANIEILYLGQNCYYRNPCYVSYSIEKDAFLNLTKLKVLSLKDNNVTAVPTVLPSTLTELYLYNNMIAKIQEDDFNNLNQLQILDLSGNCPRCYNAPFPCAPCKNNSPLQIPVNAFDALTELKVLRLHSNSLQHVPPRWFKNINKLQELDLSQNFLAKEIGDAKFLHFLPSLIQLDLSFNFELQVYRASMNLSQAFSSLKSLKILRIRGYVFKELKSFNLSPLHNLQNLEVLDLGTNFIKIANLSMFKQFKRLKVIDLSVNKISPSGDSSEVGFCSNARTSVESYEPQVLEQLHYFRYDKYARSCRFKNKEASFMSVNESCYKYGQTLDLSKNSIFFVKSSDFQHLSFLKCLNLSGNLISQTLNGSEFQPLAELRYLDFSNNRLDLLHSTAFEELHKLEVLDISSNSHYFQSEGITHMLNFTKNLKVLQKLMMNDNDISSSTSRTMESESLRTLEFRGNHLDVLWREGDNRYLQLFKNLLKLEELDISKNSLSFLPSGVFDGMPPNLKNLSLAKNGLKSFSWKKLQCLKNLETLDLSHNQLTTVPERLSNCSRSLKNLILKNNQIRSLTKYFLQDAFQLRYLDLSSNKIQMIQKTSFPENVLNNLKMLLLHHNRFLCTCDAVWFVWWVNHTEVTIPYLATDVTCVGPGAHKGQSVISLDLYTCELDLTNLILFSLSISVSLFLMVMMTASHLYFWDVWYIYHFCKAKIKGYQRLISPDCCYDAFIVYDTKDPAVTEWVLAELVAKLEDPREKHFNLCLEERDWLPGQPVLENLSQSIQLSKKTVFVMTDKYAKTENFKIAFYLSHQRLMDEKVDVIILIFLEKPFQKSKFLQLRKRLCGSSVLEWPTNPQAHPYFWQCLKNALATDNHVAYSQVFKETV
Procedure, shortened: (§1)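 After 22 h at 37 °C, SEAP secretion was measured from human TLR7-, TLR8- or TLR9-expressing HEK-Blue reporter cells given compound (0.05 nM–50 μM) 30 min before agonist: 7.5 μM gardiquimod, 15.9 μM R848 or 5 nM ODN2006 respectively. Percent inhibition referenced to agonist-plus-DMSO and known-inhibitor wells.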

human TLR9 = biological target: T2, human TLR9 (Homo sapiens, UniProt Q9NR96); test: TLR9 inhibition reporter assay (HEK-Blue cells, SEAP reporter, ODN2006 stimulation); conditions: HEK-Blue cells overexpressing human TLR9, SEAP reporter, ODN2006 5 nM
T2 construct: host or cells: HEK-Blue cells (HEK293-derived reporter line)
T2 sequence (Q9NR96 26-1032): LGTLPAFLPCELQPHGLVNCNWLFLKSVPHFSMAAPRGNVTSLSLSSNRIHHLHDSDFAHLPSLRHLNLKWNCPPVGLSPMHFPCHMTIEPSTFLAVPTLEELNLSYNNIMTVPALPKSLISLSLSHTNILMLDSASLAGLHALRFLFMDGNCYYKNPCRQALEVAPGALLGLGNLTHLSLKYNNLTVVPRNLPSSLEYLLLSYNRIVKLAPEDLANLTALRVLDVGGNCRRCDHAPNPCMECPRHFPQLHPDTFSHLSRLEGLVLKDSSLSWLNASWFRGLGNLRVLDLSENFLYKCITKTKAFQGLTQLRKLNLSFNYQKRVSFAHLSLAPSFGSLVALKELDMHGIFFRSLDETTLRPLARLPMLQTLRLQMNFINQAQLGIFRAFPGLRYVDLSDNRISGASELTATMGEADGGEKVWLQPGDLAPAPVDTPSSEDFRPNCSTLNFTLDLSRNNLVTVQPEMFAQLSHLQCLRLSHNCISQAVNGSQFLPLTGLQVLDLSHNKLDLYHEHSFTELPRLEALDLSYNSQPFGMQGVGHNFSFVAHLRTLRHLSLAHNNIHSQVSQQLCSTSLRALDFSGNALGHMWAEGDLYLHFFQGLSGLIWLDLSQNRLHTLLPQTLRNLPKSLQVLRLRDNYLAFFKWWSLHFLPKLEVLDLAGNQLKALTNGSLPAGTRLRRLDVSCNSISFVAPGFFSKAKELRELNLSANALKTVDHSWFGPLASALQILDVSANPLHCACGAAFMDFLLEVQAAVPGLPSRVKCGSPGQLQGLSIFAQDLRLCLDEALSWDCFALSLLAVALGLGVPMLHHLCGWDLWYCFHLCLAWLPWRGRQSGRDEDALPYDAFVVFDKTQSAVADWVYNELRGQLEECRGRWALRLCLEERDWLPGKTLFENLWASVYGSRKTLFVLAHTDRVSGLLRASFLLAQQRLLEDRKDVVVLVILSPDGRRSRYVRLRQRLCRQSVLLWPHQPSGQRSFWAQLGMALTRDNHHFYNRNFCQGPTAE
Procedure, shortened: as §1

human TLR8 = biological target: T3, human TLR8 (Homo sapiens, UniProt Q9NR97); test: TLR8 inhibition reporter assay (HEK-Blue cells, SEAP reporter, R848 stimulation); conditions: HEK-Blue cells overexpressing human TLR8, SEAP reporter, R848 15.9 μM
T3 construct: host or cells: HEK-Blue cells (HEK293-derived reporter line)
T3 sequence (Q9NR97 27-1041): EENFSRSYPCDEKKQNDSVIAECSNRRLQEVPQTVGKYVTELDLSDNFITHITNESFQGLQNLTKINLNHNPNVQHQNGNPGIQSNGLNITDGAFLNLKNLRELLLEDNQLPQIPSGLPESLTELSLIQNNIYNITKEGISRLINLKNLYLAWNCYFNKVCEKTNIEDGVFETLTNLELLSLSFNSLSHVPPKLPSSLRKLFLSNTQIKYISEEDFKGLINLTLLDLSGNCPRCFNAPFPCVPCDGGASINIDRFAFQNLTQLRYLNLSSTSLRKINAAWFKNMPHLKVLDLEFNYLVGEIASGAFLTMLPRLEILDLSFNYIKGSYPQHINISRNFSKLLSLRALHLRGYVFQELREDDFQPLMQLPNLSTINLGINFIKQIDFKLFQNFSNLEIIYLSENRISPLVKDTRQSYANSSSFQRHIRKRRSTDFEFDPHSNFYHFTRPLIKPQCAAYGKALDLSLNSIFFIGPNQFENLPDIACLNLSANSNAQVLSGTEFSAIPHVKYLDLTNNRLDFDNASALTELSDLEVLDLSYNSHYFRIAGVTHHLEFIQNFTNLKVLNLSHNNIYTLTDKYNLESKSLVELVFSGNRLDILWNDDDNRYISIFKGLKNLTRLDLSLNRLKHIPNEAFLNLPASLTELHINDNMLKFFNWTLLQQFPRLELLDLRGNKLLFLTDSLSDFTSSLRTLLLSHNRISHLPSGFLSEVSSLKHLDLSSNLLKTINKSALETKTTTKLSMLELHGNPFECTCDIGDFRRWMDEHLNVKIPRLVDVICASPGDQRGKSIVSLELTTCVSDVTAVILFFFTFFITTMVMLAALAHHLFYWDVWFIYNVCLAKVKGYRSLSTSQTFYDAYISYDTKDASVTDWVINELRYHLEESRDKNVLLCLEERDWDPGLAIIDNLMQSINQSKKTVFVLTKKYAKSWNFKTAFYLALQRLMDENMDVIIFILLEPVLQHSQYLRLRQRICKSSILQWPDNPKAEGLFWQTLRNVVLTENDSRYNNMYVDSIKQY
Procedure, shortened: as §1

Structure (SMILES)	IC50 (human TLR7) [nM]	IC50 (human TLR9) [nM]	IC50 (human TLR8) [nM]
COc1nc(-c2[nH]c3ccc(C4CCNCC4)cc3c2C(C)C)cn2ncnc12 [Example 47, 6-(3-isopropyl-5-(piperidin-4-yl)-1H-indol-2-yl)-8-methoxy-[1,2,4]triazolo[1,5-a]pyrazine]	100 to 1000	1000 to 50000	> 3130
Cc1cc(-c2[nH]c3ccc(C4CCN(C(=O)CN(C)C)CC4)cc3c2C(C)C)c(C)n2nnnc12 [Example 469, 2-(dimethylamino)-1-(4-(2-(5,8-dimethyltetrazolo[1,5-a]pyridin-6-yl)-3-isopropyl-1H-indol-5-yl)piperidin-1-yl)ethan-1-one]	< 100	1000 to 50000	< 100
CCOC(=O)N1CCC(N2CCC(c3ccc4[nH]c(-c5ccnc6[nH]ncc56)c(C(C)C)c4c3)CC2)C(C)C1 (stereo not drawn) [Example 835, ethyl 4-(3-isopropyl-2-(1H-pyrazolo[3,4-b]pyridin-4-yl)-1H-indol-5-yl)-3′-methyl-[1,4′-bipiperidine]-1′-carboxylate]	100 to 1000	1000 to 50000	100 to 1000
Cc1cc(-c2[nH]c3ccc(C4CCNCC4)cc3c2C(C)C)cn2cc(C(=O)NC3CC3)nc12 [Example 262, N-cyclopropyl-6-(3-isopropyl-5-(piperidin-4-yl)-1H-indol-2-yl)-8-methylimidazo[1,2-a]pyridine-2-carboxamide]	< 100	100 to 1000	< 100
Cc1cc(-c2[nH]c3ccc(C4CCNCC4)cc3c2C(C)C)cn2ccnc12 [Example 112, 6-(3-isopropyl-5-(piperidin-4-yl)-1H-indol-2-yl)-8-methylimidazo[1,2-a]pyridine]	< 100	100 to 1000	< 100
CC(C)c1c(-c2ccnc3[nH]c(=O)[nH]c23)[nH]c2ccc(C3CCNCC3)cc12 [Example 57, 7-(3-isopropyl-5-(piperidin-4-yl)-1H-indol-2-yl)-1,3-dihydro-2H-imidazo[4,5-b]pyridin-2-one]	100 to 1000	1000 to 50000	1000 to 50000
Cc1nc2cc(-c3[nH]c4ccc(C5CCN(C(=O)CN(C)C)CC5)cc4c3C(C)C)ccn2n1 [Example 538, 2-(dimethylamino)-1-(4-(3-isopropyl-2-(2-methyl-[1,2,4]triazolo[1,5-a]pyridin-7-yl)-1H-indol-5-yl)piperidin-1-yl)ethan-1-one]	< 100	1000 to 50000	100 to 1000
CCc1c(-c2ccnc3[nH]ncc23)[nH]c2ccc(C3CCNCC3)cc12 [Example 229, 4-(3-ethyl-5-(piperidin-4-yl)-1H-indol-2-yl)-1H-pyrazolo[3,4-b]pyridine]	< 100	100 to 1000	< 100
CC(C)c1c(-c2cnc3ncccn23)[nH]c2ccc(C3CCN(CC(=O)N(C)C)CC3)cc12 [Example 290, 2-(4-(2-(imidazo[1,2-a]pyrimidin-3-yl)-3-isopropyl-1H-indol-5-yl)piperidin-1-yl)-N,N-dimethylacetamide]	100 to 1000	1000 to 50000	< 100
Cc1c(-c2[nH]c3ccc(C4CCN(CC(=O)N(C)C)CC4)cc3c2C(C)C)c2cccnc2n1C [Example 286, 2-(4-(2-(1,2-dimethyl-1H-pyrrolo[2,3-b]pyridin-3-yl)-3-isopropyl-1H-indol-5-yl)piperidin-1-yl)-N,N-dimethylacetamide]	< 100	1000 to 50000	< 100
Cc1cc(-c2[nH]c3ccc(C4CCN(C(=O)CN(C)C(C)C)CC4)cc3c2C(C)C)cn2nnnc12 [Example 480, 2-(isopropyl(methyl)amino)-1-(4-(3-isopropyl-2-(8-methyltetrazolo[1,5-a]pyridin-6-yl)-1H-indol-5-yl)piperidin-1-yl)ethan-1-one]	< 100	1000 to 50000	< 100
Cc1c(-c2[nH]c3ccc(C4CCNCC4)cc3c2C(C)C)cn2ccnc2c1C [Example 271, 6-(3-isopropyl-5-(piperidin-4-yl)-1H-indol-2-yl)-7,8-dimethylimidazo[1,2-a]pyridine]	< 100	100 to 1000	< 100
CNC(=O)CN1CCC(c2ccc3[nH]c(-c4cn5ccnc5c(C)c4C)c(C(C)C)c3c2)CC1 [Example 413, 2-(4-(2-(7,8-dimethylimidazo[1,2-a]pyridin-6-yl)-3-isopropyl-1H-indol-5-yl)piperidin-1-yl)-N-methylacetamide]	< 100	100 to 1000	< 100
Cc1cc2nc(-c3[nH]c4ccc(C5CCNCC5)cc4c3C(C)C)ccn2n1 [Example 149, 5-(3-isopropyl-5-(piperidin-4-yl)-1H-indol-2-yl)-2-methylpyrazolo[1,5-a]pyrimidine]	100 to 1000	1000 to 50000	1000 to 50000
